For ten compounds, MIC results are on record in patent US20260083721A1, “7-CYANO-8-HYDROXYQUINOLINE DERIVATIVE, PREPARATION METHOD THEREFOR AND MEDICAL USE THEREOF” (Jiangsu Yahong Meditech Co., Ltd., priority 2022, published 2026).

In brackets after ≈: the same amount, converted by molar mass.

What all share (type): cell-based
Test [1] relates to carbapenem-resistant Escherichia coli 18-W09-093. Kind of test: MIC by broth microdilution, carbapenem-resistant E. coli 18-W09-093. As to conditions: carbapenem-resistant clinical isolate, CAMHB, 35±2° C., 20 hours, drug concentration range 128 mg/L to 0.06 mg/L, read-out: inhibitory MIC value, Escherichia coli 18-W09-093. The source says:
(§1) The test bacteria were 2 strains of carbapenem-resistant Escherichia coli (18-W09-093 and 18-W18-070), 2 strains of carbapenem-resistant Acinetobacter baumannii (18-W15-036 and 18-W13-081), 1 strain of methicillin-resistant Staphylococcus aureus (19-W03-012) and 1 strain of methicillin-sensitive Staphylococcus aureus (19-W01-012), isolated clinically, with duplicate strains isolated from the same patient being excluded. Besides, there were 3 quality control strains, namely Escherichia co/i ATCC 25922, Acinetobacter baumannii ATCC 19606, and Staphylococcus aureus ATCC 29213. The above strains were all provided by Shanghai GenoMatrix Medical Laboratory Co., Ltd.
(§2) The MIC of the compound of the present invention on clinically isolated strains was assayed by the broth microdilution method according to the relevant documents from the Clinical and Laboratory Standards Institute (CLSI) of United States. • 3.1 Preparation of antimicrobial drugs: the compounds of the present invention were all dissolved with DMSO. The drug concentration ranged from 128 mg/L to 0.06 mg/L. • 3.2 Culture medium: cation adjusted Mueller-Hinton broth (CAMHB) was used. • 3.3 Inoculation amount of bacteria: the isolated pure culture of test bacteria cultured overnight was adjusted to 0.5 McFarland turbidity by direct colony suspension and diluted 100 folds, and the final inoculation amount was 10^5 CFU/mL. • 3.4 Culture conditions: the bacteria were cultured in air at 35±2° C. for 20 hours.
(§3) The results of the drug sensitivity test were interpretated according to the standards of CLSI M100-ED29:2019.
(§4) The statistical analysis of the results of the drug sensitivity test was done by using WHONET version 5.6 software.
On the technique in general: In broth dilution the organism is exposed to a series of concentrations in liquid medium.

Test [2] has as its system carbapenem-resistant Escherichia coli 18-W18-070. Kind of test: MIC by broth microdilution, carbapenem-resistant E. coli 18-W18-070. As to conditions: carbapenem-resistant clinical isolate, CAMHB, 35±2° C., 20 hours, drug concentration range 128 mg/L to 0.06 mg/L, read-out: inhibitory MIC value, Escherichia coli 18-W18-070.
Source text: as §1, §2, §3, §4

For test [3], the system named is Escherichia coli ATCC25922. Kind of test: MIC by broth microdilution, E. coli ATCC 25922. As to conditions: quality control strain, CAMHB, 35±2° C., 20 hours, drug concentration range 128 mg/L to 0.06 mg/L, read-out: inhibitory MIC value, Escherichia coli ATCC25922.
Source text: as §1, §2, §3, §4

The subject of test [4] is carbapenem-resistant Acinetobacter baumannii 18-W15-036. Put plainly: MIC by broth microdilution, carbapenem-resistant A. baumannii 18-W15-036. As to conditions: carbapenem-resistant clinical isolate, CAMHB, 35±2° C., 20 hours, drug concentration range 128 mg/L to 0.06 mg/L, read-out: inhibitory MIC value, Acinetobacter baumannii 18-W15-036.
Source text: as §1, §2, §3, §4

For test [5], the system named is carbapenem-resistant Acinetobacter baumannii 18-W13-081. Kind of test: MIC by broth microdilution, carbapenem-resistant A. baumannii 18-W13-081. The settings on record: carbapenem-resistant clinical isolate, CAMHB, 35±2° C., 20 hours, drug concentration range 128 mg/L to 0.06 mg/L, read-out: inhibitory MIC value, Acinetobacter baumannii 18-W13-081.
Source text: as §1, §2, §3, §4

Test [6] relates to Acinetobacter baumannii ATCC19606. Put plainly: MIC by broth microdilution, A. baumannii ATCC 19606. As to conditions: quality control strain, CAMHB, 35±2° C., 20 hours, drug concentration range 128 mg/L to 0.06 mg/L, read-out: inhibitory MIC value, Acinetobacter baumannii ATCC19606.
Source text: as §1, §2, §3, §4

In test [7] the test system is methicillin-resistant Staphylococcus aureus 19-W03-012. Put plainly: MIC by broth microdilution, methicillin-resistant S. aureus 19-W03-012. As to conditions: methicillin-resistant clinical isolate, CAMHB, 35±2° C., 20 hours, drug concentration range 128 mg/L to 0.06 mg/L, read-out: inhibitory MIC value, Staphylococcus aureus 19-W03-012.
Source text: as §1, §2, §3, §4

Test [8] relates to methicillin-sensitive Staphylococcus aureus 19-W01-012. Put plainly: MIC by broth microdilution, methicillin-sensitive S. aureus 19-W01-012. As to conditions: methicillin-sensitive clinical isolate, CAMHB, 35±2° C., 20 hours, drug concentration range 128 mg/L to 0.06 mg/L, read-out: inhibitory MIC value, Staphylococcus aureus 19-W01-012.
Source text: as §1, §2, §3, §4

Test [9] has as its system Staphylococcus aureus ATCC29213. Put plainly: MIC by broth microdilution, S. aureus ATCC 29213. As to conditions: quality control strain, CAMHB, 35±2° C., 20 hours, drug concentration range 128 mg/L to 0.06 mg/L, read-out: inhibitory MIC value, Staphylococcus aureus ATCC29213.
Source text: as §1, §2, §3, §4

With `N#Cc1cc(Br)c2cccnc2c1O` [Compound 1, 5-bromo-7-cyano-8-hydroxyquinoline], the MIC came to 32 µg/mL (≈ 128 µM) in [1]; 32 µg/mL (≈ 128 µM) in [2]; 8 µg/mL (≈ 32.1 µM) in test [3]; 16 µg/mL (≈ 64.2 µM) in test [4]; 4 µg/mL (≈ 16.1 µM) in [5]; 4 µg/mL (≈ 16.1 µM) in test [6]. The MIC in [7], in test [8] and in [9] was 4 µg/mL (≈ 16.1 µM) in each case.
Take `N#Cc1cc(C(F)(F)F)c2cccnc2c1O` [Compound 2, 5-trifluoromethyl-7-cyano-8-hydroxyquinoline]: the MIC is 64 µg/mL (≈ 269 µM) in test [1]; 64 µg/mL (≈ 269 µM) in test [2]; 32 µg/mL (≈ 134 µM) in test [3]; 64 µg/mL (≈ 269 µM) in test [4]; 32 µg/mL (≈ 134 µM) in [5]; 16 µg/mL (≈ 67.2 µM) in test [6]. The figures for the MIC in test [7], in test [8] and in test [9] were 4 µg/mL (≈ 16.8 µM), 4 µg/mL (≈ 16.8 µM) and 8 µg/mL (≈ 33.6 µM), respectively.
Turning to `Cc1ccnc2c(O)c(C#N)ccc12` [Compound 3, 4-methyl-7-cyano-8-hydroxyquinoline], the MIC in test [1] turned out to be 16 µg/mL (≈ 86.9 µM); in [2] it was 16 µg/mL (≈ 86.9 µM); in test [3] it was 8 µg/mL (≈ 43.4 µM); in test [4], 8 µg/mL (≈ 43.4 µM); in test [5], 8 µg/mL (≈ 43.4 µM); in [6] it was 8 µg/mL (≈ 43.4 µM). In addition, the MIC in test [7], in test [8] and in test [9] was 8 µg/mL (≈ 43.4 µM) throughout.
Consider `N#Cc1ccc2ccc(F)nc2c1O` [Compound 4, 2-fluoro-7-cyano-8-hydroxyquinoline], for which the MIC is 16 µg/mL (≈ 85 µM) in test [1]; 16 µg/mL (≈ 85 µM) in test [2]; 8 µg/mL (≈ 42.5 µM) in test [3]; 8 µg/mL (≈ 42.5 µM) in [4]; 8 µg/mL (≈ 42.5 µM) in test [5]; 4 µg/mL (≈ 21.3 µM) in test [6]. For the same compound, the MIC in [7], in [8] and in [9] was 16 µg/mL (≈ 85 µM) throughout.
With `Cc1ccnc2c(O)c(C#N)cc(Cl)c12` [Compound 5, 4-methyl-5-chloro-7-cyano-8-hydroxyquinoline], the minimal inhibitory concentration (MIC) in test [1] was found to be 32 µg/mL (≈ 146 µM); in [2] it was 16 µg/mL (≈ 73.2 µM); in test [3] it was 8 µg/mL (≈ 36.6 µM); in [4], 8 µg/mL (≈ 36.6 µM); in [5] it was 2 µg/mL (≈ 9.15 µM); in test [6], 4 µg/mL (≈ 18.3 µM). Besides, the MIC in test [7] worked out at 2 µg/mL (≈ 9.15 µM); in test [8] it was 4 µg/mL (≈ 18.3 µM); in [9], 4 µg/mL (≈ 18.3 µM).
Consider `Cc1ccnc2c(O)c(C#N)cc(Br)c12` [Compound 6, 4-methyl-5-bromo-7-cyano-8-hydroxyquinoline], for which the MIC was determined as 32 µg/mL (≈ 122 µM) in test [1]; 32 µg/mL (≈ 122 µM) in test [2]; 8 µg/mL (≈ 30.4 µM) in test [3]; 32 µg/mL (≈ 122 µM) in test [4]; 4 µg/mL (≈ 15.2 µM) in [5]; 4 µg/mL (≈ 15.2 µM) in test [6]. Also, the MIC came to 2 µg/mL (≈ 7.6 µM) in [7], 4 µg/mL (≈ 15.2 µM) in [8] and 4 µg/mL (≈ 15.2 µM) in test [9].
On to `N#Cc1c(Cl)c(Cl)c2cccnc2c1O` [Compound 7, 5,6-dichloro-7-cyano-8-hydroxyquinoline], for which the MIC in [1] is over 64 µg/mL; in [2] it was over 64 µg/mL; in test [3], 32 µg/mL (≈ 134 µM); in test [4], 32 µg/mL (≈ 134 µM); in test [5], 4 µg/mL (≈ 16.7 µM); in test [6] it was 2 µg/mL (≈ 8.37 µM). The MIC in [7] was 0.5 µg/mL (≈ 2.09 µM); in test [8] it was 0.5 µg/mL (≈ 2.09 µM); in test [9] it was 1 µg/mL (≈ 4.18 µM).
Consider `N#Cc1cc(C(=O)O)c2cccnc2c1O` [Compound 8, 7-cyano-8-hydroxyquinoline-5-carboxylic acid], for which the MIC in [1], in test [2], in [3], in test [4], in [5] and in test [6] was over 64 µg/mL in each case. Further, the MIC in test [7], in test [8] and in test [9] was over 64 µg/mL in each case.
With `N#Cc1cc(Cl)c2cccnc2c1O` [Compound 9, 5-chloro-7-cyano-8-hydroxyquinoline], the MIC in test [1] is 32 µg/mL (≈ 156 µM); in test [2], 32 µg/mL (≈ 156 µM); in test [3] it was 16 µg/mL (≈ 78.2 µM); in test [4], 16 µg/mL (≈ 78.2 µM); in test [5], 8 µg/mL (≈ 39.1 µM); in [6], 4 µg/mL (≈ 19.5 µM). Also, the MIC in test [7], in [8] and in [9] was 8 µg/mL (≈ 39.1 µM) in each case.
Take `Cc1cc(C#N)c(O)c2ncccc12` [Compound A, reference compound]: the MIC in [1] amounted to 8 µg/mL (≈ 43.4 µM); in [2] it was 16 µg/mL (≈ 86.9 µM); in [3] it was 8 µg/mL (≈ 43.4 µM); in test [4], 8 µg/mL (≈ 43.4 µM); in test [5] it was 4 µg/mL (≈ 21.7 µM); in [6] it was 4 µg/mL (≈ 21.7 µM). Also, the MIC in test [7], in test [8] and in test [9] was 4 µg/mL (≈ 21.7 µM) in each case.

One may read the MIC as the lowest concentration that inhibits growth of the organism.
